Measurements published in patent publication US20130079364A1, “Peripheral Opioid Agonists and Peripheral Opioid Antagonists” (SIGNATURE THERAPEUTICS, INC., priority 2010, published 2013).
Like-named read-outs stand apart in the source and are kept apart here.

How the values were obtained:
[1] = male, Sprague Dawley, rat, in vivo, iv, 10 mg/kg
[2] = tested on: CNS opioid receptors; test: Rat tail flick latency assay, morphine induced analgesia; type: in vivo, Sprague Dawley rats; details: antagonist subcutaneously 70 min after 5 mg/kg morphine; Compound AN-1, AN-6 0.3 mg/kg, naltrexone 1.8 mg/kg; FIG. 8
Experimental: A rat tail flick latency assay (see, e.g., Tejwani G et al., 2002, Anesth Analg 94, 1542-1546) was used to determine whether peripheral opioid antagonists of the embodiments were capable of effecting antagonist activity at opioid receptors in the central nervous system. In such an assay, the tails of rats are exposed to a noxious stimulus, such as heat, and tail withdrawal latency is measured. The latency (i.e., time between exposure and reaction) is an indication of the amount of pain experienced by the rat.
In this study, the tails of healthy male Sprague Dawley rats (5 per group) were painted with India ink (i.e., a 6-cm portion, starting at the tip). The rats were then placed in Broome Restrainers and allowed to acclimate for at least 15 min. At the conclusion of the acclimation period, baseline tail withdrawal latencies (baseline latency) were measured by exposing the rats to a focused light beam of 80 volts at a position 6.5 cm above the tail until the rats flicked their tail out of the path of the light beam. This step was repeated twice for each rat, in two spots, i.e., 2 cm and 4 cm from the tip of the tail. The responses were averaged and used as a baseline latency value for comparison to post-drug treatment latency values.

[3] = Plasma and cerebrospinal fluid penetration following IV administration to rats; details: for concentration at 2 min: male, Sprague Dawley, rat, in vivo, iv, 10 mg/kg, Compound conc. in CSF; for concentration at 2 min / Compound conc. in plasma / Compound conc. in CSF / Plasma/CSF partitioning coefficient: rats
[4] = target: T1, human μ-opioid receptor (Homo sapiens, UniProt P35372); test: In vitro human μ-opioid receptor antagonist cellular functional assay (cAMP, HTRF); type: cell-based; details: for EC50: CHO cells expressing human μ-opioid receptor
T1 construct: expressed in transfected cells; host or cells: CHO (Chinese hamster ovary) cells
T1 sequence (P35372 whole entry): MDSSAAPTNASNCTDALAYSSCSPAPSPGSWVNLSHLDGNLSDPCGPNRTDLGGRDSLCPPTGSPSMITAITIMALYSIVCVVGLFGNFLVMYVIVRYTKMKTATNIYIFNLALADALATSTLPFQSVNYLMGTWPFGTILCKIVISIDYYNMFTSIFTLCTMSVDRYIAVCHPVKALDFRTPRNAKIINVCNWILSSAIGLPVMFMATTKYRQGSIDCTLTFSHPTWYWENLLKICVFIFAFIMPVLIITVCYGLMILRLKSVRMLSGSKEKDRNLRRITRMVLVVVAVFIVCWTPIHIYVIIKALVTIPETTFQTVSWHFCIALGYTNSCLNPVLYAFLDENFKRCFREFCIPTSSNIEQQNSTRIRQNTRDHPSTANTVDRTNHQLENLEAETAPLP
Description: (§1) This Example measures the ability of certain compounds of the present disclosure to effect an agonist or antagonist response when exposed to recombinant human μ-opioid receptor expressed in CHO cells.
(§2) The general procedure follows the protocol described by Wang, J.-B., Johnson, P. S., Perscio, A. M., Hawkins, A. L., Griffin, C. A. and Uhl, G. R. (1994). FEBS Lett., 338: 217-222. More specifically, the assays included each of the compounds indicated in Table 1 and recombinant Chinese hamster ovary (CHO) cells expressing the human μ-opioid receptor on their cell surfaces. The control reaction included 1 μM DAMGO. The reaction mixtures were incubated at 37° C. for 10 min, and the reaction product was cyclic AMP (cAMP). The samples were submitted to homogeneous time resolved fluorescence (HTRF®). EC50 values (concentration producing a half-maximal specific response) were determined by non-linear regression fit using the Hillplot software.

[5] = Pharmacokinetics following IV administration to rats (plasma, HPLC/MS); details: male, Sprague Dawley, rat
[6] = Pharmacokinetics following PO administration to rats (plasma, HPLC/MS); details: male, Sprague Dawley, rat, 20 mg/kg
Experimental: At specified time points, blood samples were drawn, harvested for plasma via centrifugation at 5,400 rpm at 4° C. for 5 min, and 100 microliters (μl) plasma transferred from each sample into a fresh tube containing 2 μl of 50% formic acid. The tubes were vortexed for 5-10 seconds, immediately placed in dry ice and then stored in a −80° C. freezer until analysis by HPLC/MS.
(§3) At specified time points, blood samples were drawn, harvested for plasma via centrifugation at 5,400 rpm at 4° C. for 5 min, and 100 μl plasma transferred from each sample into a fresh tube containing 2 μl of 50% formic acid. The tubes were vortexed for 5-10 seconds, immediately placed in dry ice and then stored in a −80° C. freezer until analysis by HPLC/MS.
as §3, §3

[7] = target: T1, human μ-opioid receptor; test: cell-based; details: for EC50: CHO cells expressing human μ-opioid receptor, read-out: Agonist EC50
Description: as §1, §2

[8] = tested on: inflammatory pain; test: Carrageenan-induced inflammatory paw model (Randall Selitto test); type: in vivo, Sprague-Dawley rats; details: 200 mg/kg Compound AG-2 oral gavage three hours after carrageenan; FIG. 10
Experimental: The carrageenan-induced inflammatory paw model (see, e.g., Bileviciute-Ljungar I et al, 2006, J Pharmacol Exp Ther 317, 220-227) was used to assess the ability of peripheral opioid agonist Compound AG-2 to reduce inflammatory pain, by measuring paw withdrawal latency in response to mechanical stimulation of the paw.
Sprague-Dawley rats, fasted for approximately 18 hours prior to compound administration, were used for this study. Rats were injected in the plantar surface of the right hindpaw with 100 ul of a 1% carrageenan solution formulated in water (carrageenan available from Spectrum Chemical Manufacturing Corporation, Gardena, Calif.) three hours prior to compound administration, in order to elicit maximum edema formation. The hindpaw withdrawal latency to mechanical stimulation for each paw was tested before compound administration for use as a pre-treatment baseline, and at specific time points after compound administration using the Randall Selitto test (instrument available from IITC Inc. Life Science, Woodland Hills, Calif.). Briefly, the hindpaw was pinched until the animal retracted its paw. The amount of force (in grams) required to elicit a withdrawal response was assessed. Two repeat measures were taken at each time point, and the averaged value from the inflamed paw was used to quantify the percentage of change from the pre-treatment baseline. […]

[9] = IV 10 mg/kg Compound AN-1, 2-minute time point
[10] = IV 10 mg/kg of each compound, 2-min time point (Table 12)

**Q.** Which “Compound conc. in plasma” value [1] does the source give for O=C1CC[C@@]2(O)[C@H]3Cc4ccc(O)c5c4[C@@]2(CCN3CC2CC2)[C@H]1O5 [Naltrexone, naltrexone, reference compound] here?
**A.** The value was 9.17 ng/mL.

**Q.** And the “effect on morphine induced analgesia (% MPE, tail flick)” value (“effect … (% MPE, tail flick)” below) [2]?
**A.** Its value is “rapid inhibition of analgesia”.

**Q.** What about the concentration at 2 min [3, 9] of the same molecule?
**A.** The concentration at 2 min was 7.44 ng/mL.

**Q.** What about the concentration at 2 min ([3]; IV 10 mg/kg Compound AN-3, 2-minute time point) of the same molecule?
**A.** Its concentration at 2 min is 0.813 ng/mL.

**Q.** And the “Compound conc. in plasma” value [3, 9]?
**A.** The value was 71.1 ng/mL.

**Q.** Which “effect … (% MPE, tail flick)” value [2] does the source give for CN(CCNC(=O)[C@@H](CCCCN)NC(=O)CC(=O)O)C(=O)OC1=CC[C@@]2(O)C3Cc4ccc(O)c5c4[C@@]2(CCN3CC2CC2)[C@H]1O5 [Compound AN-6, N-(naltrexone-6-enol-carbonyl-methylamino)ethylamine-D-lysine-malonic acid] here?
**A.** The value was “no inhibition of analgesia”.

**Q.** What about the “Compound conc. in CSF” value [3, 10] of the same molecule?
**A.** Its value is 95.0 ng/mL.

**Q.** What about the “Compound conc. in plasma” value [3, 10] of the same molecule?
**A.** Its value is 79,400 ng/mL.

**Q.** What about the Plasma/CSF partitioning coefficient [3, 10] of the same molecule?
**A.** Its Plasma/CSF partitioning coefficient is 836.

**Q.** What does the source list for C=CCN1CC[C@]23c4c5ccc(O)c4O[C@H]2C(OC(=O)N(C)CCNC(=O)[C@@H](CCCNC(=N)N)NC(=O)CC(=O)O)=CC[C@@]3(O)C1C5 [Compound AN-4, N-(naloxone-6-enol-carbonyl-methylamino)ethylamine-D-arginine-malonic acid]?
**A.** Compound conc. in CSF [3, 10]: 101 ng/mL; Compound conc. in plasma [3, 10]: 49,200 ng/mL; Plasma/CSF partitioning coefficient [3, 10]: 487

**Q.** With CC(=O)N[C@H](CC(=O)O)C(=O)NCCN(C)C(=O)OC1=CC[C@@]2(O)C3Cc4ccc(O)c5c4[C@@]2(CCN3CC2CC2)[C@H]1O5 [Compound AN-7, N-(naltrexone-6-enol-carbonyl-methylamino)ethylamine-D-aspartic acid-acetate] as the molecule, how does the EC50 ([4]; Antagonist EC50, Table 15, Example 24) read?
**A.** The EC50 was 300 nM.

**Q.** And the “NTX/Compound AN-7 relative potency” value ([4]; EC50 at the human μ-opioid receptor, naltrexone to Compound AN-7)?
**A.** Its value is 8.6.

**Q.** And the “Compound conc. in CSF” value [3, 10]?
**A.** Its value is 462 ng/mL.

**Q.** And the “Compound conc. in plasma” value [3, 10]?
**A.** The value was 76,600 ng/mL.

**Q.** What about the Plasma/CSF partitioning coefficient [3, 10] of the same molecule?
**A.** Its Plasma/CSF partitioning coefficient is 166.

**Q.** Which Cmax ([5]; 10 mg/kg) does the source give for CN(CCNC(=O)[C@@H](CCCNC(=N)N)NC(=O)CC(=O)O)C(=O)OC1=CC[C@@]2(O)[C@H]3Cc4ccc(O)c5c4[C@@]2(CCN3CC2CC2)[C@H]1O5 [Compound AN-1, N-(naltrexone-6-enol-carbonyl-methylamino)ethylamine-D-arginine-malonic acid] here?
**A.** The Cmax was 46300 ng/mL.

**Q.** And the AUC [6]?
**A.** Its AUC is 139 ± 32 ng·h/mL.

**Q.** And the Cmax [6]?
**A.** Its Cmax is 41 ± 13 ng/mL.

**Q.** What about the Tmax [6] of the same molecule?
**A.** The Tmax was 45 ± 17.4 min.

**Q.** What about the EC50 ([4]; Antagonist EC50, Table 1, Example 9, 37° C. 10 min) of the same molecule?
**A.** Its EC50 is 180 nM.

**Q.** And the “NTX/Compound AN-1 relative potency” value ([4]; EC50 at the human μ-opioid receptor, naltrexone to Compound AN-1)?
**A.** Its value is 6.0.

**Q.** And the “effect … (% MPE, tail flick)” value [2]?
**A.** Its value is “no inhibition of analgesia”.

**Q.** And the “relative plasma/CSF partitioning coefficient of Compound AN-1 to naltrexone” value ([3]; 620/9.6)?
**A.** Its value is “about 65”.

**Q.** And the “Compound conc. in CSF” value [3, 9]?
**A.** The value was 74.7 ng/mL.

**Q.** What about the “Compound conc. in plasma” value [3, 9] of the same molecule?
**A.** Its value is 46,300 ng/mL.

**Q.** And the Plasma/CSF partitioning coefficient [3, 9]?
**A.** The Plasma/CSF partitioning coefficient was 620.

**Q.** For CN(CCNC(=O)[C@@H](CCCNC(=N)N)NC(=O)CC(=O)O)C(=O)OC1=CCC2C3Cc4ccc(O)c5c4[C@@]2(CCN3C)[C@H]1O5 (stereo partly drawn) [Compound AG-4, N-(hydromorphone-6-enol-carbonyl-methyl-amino)ethylamine-D-arginine-malonic acid], which “HM/Compound AG-4 relative potency” value ([7]; EC50 at the human μ-opioid receptor, hydromorphone to Compound AG-4) is on record?
**A.** Its value is 16.1.

**Q.** What about the EC50 ([7]; Table 15, Example 24) of the same molecule?
**A.** Its EC50 is 37 nM.

**Q.** Which Cmax ([5]; 2 mg/kg) does the source give for COc1ccc2c3c1O[C@H]1C(OC(=O)N(C)CCNC(=O)[C@@H](CCCNC(=N)N)NC(=O)CC(=O)O)=CC[C@@]4(O)[C@@H](C2)N(C)CC[C@]314 [Compound AG-2, N-(oxycodone-6-enol-carbonyl-methylamino)ethylamine-D-arginine-malonic acid] here?
**A.** Its Cmax is 3410 ng/mL.

**Q.** What about the “Compound conc. in CSF” value [1] of the same molecule?
**A.** Its value is 22.8 ng/mL.

**Q.** And the “Compound conc. in plasma” value [1]?
**A.** Its value is 28,600 ng/mL.

**Q.** And the Plasma/CSF partitioning coefficient [1]?
**A.** The Plasma/CSF partitioning coefficient was 1,254.

**Q.** What about the Cmax [6] of the same molecule?
**A.** The Cmax was 46.1 ± 0.9 ng/mL.

**Q.** And the Tmax [6]?
**A.** Its Tmax is 37.5 ± 15 min.

**Q.** And the “increase in pain tolerance compared to the untreated rats” value [8]?
**A.** Its value is “approximately 50%”.

**Q.** And the “OC/Compound AG-2 relative potency” value [7]?
**A.** The value was 10.9.

**Q.** What about the EC50 ([7]; Table 1, Example 9, 37° C. 10 min) of the same molecule?
**A.** The EC50 was 850 nM.
